Experimental findings from publication PMC12814185, “Receptor-Mediated Shuttling of a D‑Amino Acid Peptide Achieves High Nanomolar Cytosolic Concentrations” (Journal of the American Chemical Society, 2025) are described below.

For this data set, the system named is HEK293 cells. The data set can be described thus: Resazurin based cell viability assay, Nutlin-3a. The conditions noted are these: 72 h incubation, HEK293 and HEK293_CMKLR1-eYFP. As for the experimental part:
performed in DMEM with 10% FBS due to its higher pH buffering capacity compared to DMEM/F12 with […]
Calcium flux assay was performed with cells expressing CMKLR1 and the chimeric G protein Δ6Gαqi4myr.
The stably transfected COS-7_CMKLR1-eYFP_ Δ6Gαqi4myr cells were seeded at 25,000 cells per well into poly-ᴅ-lysine-coated 96-well plates (black µCLEAR, Greiner). The next day, cells were incubated with 2.3 µM Fluo-2-AM (Abcam) and 0.06% (v/v) Pluronic-F127 (Sigma) in assay buffer (2.5 mM probenecid (Sigma), 20 mM 4-(2-hydroxyethyl)-1-piperazineethanesulfonic acid (HEPES, Sigma) in Hanks' Balanced Salt Solution (HBSS, Biowest), pH 7.5) for 1 h. This solution was replaced by assay buffer, and basal Ca2+ signal (λex = 485 nm, λem = 525 nm) was measured for 20 s with a Flexstation 3 plate reader (Molecular Devices). Peptide dilutions were added, and the Ca2+ response was measured for 40 s. The maximum signal over baseline was calculated and normalized to peptide 1 (N3-cC9). Non-linear regression was performed using Prism 10 (GraphPad). Experiments were performed in technical duplicates and at least […]
Cells were then washed and a resazurin-based cell viability assay was performed. […] After 2h incubation, cell viability wa s measured using the fluorescence of resorufin (λex = 550 nm, λem = 595 nm). […]
Peptide internalization was evaluated by fluorescence microscopy. […]
For orientation: Alamar Blue is a resazurin reagent that responds to reducing activity.

Consider `COc1ccc(C2=N[C@@H](c3ccc(Cl)cc3)[C@@H](c3ccc(Cl)cc3)N2C(=O)N2CCNC(=O)C2)c(OC(C)C)c1` [nutlin-3a], for which the cytotoxicity result is given as “noncytotoxic response”.
